Reference: patent US6245765A, “Mesylate dihydrate salts of 5-(2-(4-(1,2-benzisothiazol-3-yl)-1-piperazinyl)-ethyl)-6-chloro-1,3-dihyd ro-2(1H)-indol-2-one (=ziprasidone), its preparation and its use as dopamine D2 antagonist” (Pfizer Inc, priority 1999, dated 2001)
Where a name gives a salt, the structure may show the parent alone.

Columns and labels:
[1] = Aqueous solubility (solubility in water); format: physicochemical
[2] = as stated in U.S. Pat. No. 5,312,925; cited from earlier work

Row | Compound | SOLUBILITY IN WATER ([1]; aqueous solubility of ziprasidone mesylate polymorphs, water) [mg/mL] | hygroscopic stability (in words) [2] | aqueous solubility (in words) ([1]; qualitative statement, dihydrates compared with ziprasidone hydrochloride monohydrate)
1 | O=C1Cc2cc(CCN3CCN(c4nsc5ccccc45)CC3)c(Cl)cc2N1 [dihydrate (needle), 5-[2-[4-(1,2-benzisothiazol-3-yl)-1-piperazinyl]ethyl]-6-chloro-1,3-dihydro-2H-indol-2-one Methanesulfonate Dihydrate (Needle Crystals)] | 1.10 |  | 
2 | O=C1Cc2cc(CCN3CCN(c4nsc5ccccc45)CC3)c(Cl)cc2N1 [ziprasidone hydrochloride monohydrate] |  | substantially hygroscopically stable | low aqueous solubility
